Experimental data: paper PMC8648660, “Multifunctional thiosemicarbazones targeting sigma receptors: in vitro and in vivo antitumor activities in pancreatic cancer models” (Cellular Oncology, 2021)
“Also recorded” adds a separate entry of the source.

How the values were obtained:
caspase 9 = assay: Caspase 9 activity assay in pancreatic cancer cells; format: cell-based, human and murine; settings: 2 h
Description: (§1) Caspase 3, caspase 7 and caspase 9 activation was measured using a Caspase 3/7 Fluorescence Assay kit (Cayman Chemical, Ann Arbor, MI, USA) and a Caspase 9 fluorometric assay kit (Enzo Life Science, Roma, Italy). The results are expressed as nmol of the hydrolyzed substrate of each caspase/mg cellular proteins, according to a previously set titration curve.

mitochondrial ROS = assay: Mitochondrial ROS measurement (MitoSOX); format: cell-based, human and murine; settings: 50 µM, 2 h
Description: Intra-mitochondrial ROS was measured using fluorescent probe MitoSOX as per manufacturer’s instructions (Invitrogen). To measure total ROS, cells were incubated with the ROS-sensitive probe 5-(and-6)-chlorometyl-20,70-dichlorodihydro-fluorescein diacetate-acetoxymethyl ester ([…]; DCFDA-AM) as described by Riganti et al.. The results are expressed as nmol/mg mitochondrial or cellular protein, respectively.

MiaPaCa2 xenografts = assay: In vivo xenograft assay, MiaPaCa2; set-up: species or system mice; settings: FA4 750 and 1500 nmol i.p. daily, 15 days
Description: 2 × 10^5 PANC-1 or Mia-PaCa2 cells were inoculated subcutaneously in the right flank of 6-week old C57BL/6 female nude mice (Charles River Laboratories Italia, Calco), housed (5 per cage) under a 12 h light/dark cycle, with food and drinking water provided ad libitum. Tumor growth was measured daily by caliper, according to the equation (LxW^2)/2, where L = tumor length and W = tumor width. When tumors reached a volume of 100 mm^3, the mice (n = 8/group) were randomized in the following groups and treated daily for 15 days or 30 days intraperitoneally as reported: (1) Vehicle group (100 µl saline solution), (2) FA4^low group (750 nmol FA4 in 100 µl saline solution), (3) FA4^high group (1500 nmol FA4 in 100 µl saline solution) and (4) Gemcitabine group (20 mg/kg gemcitabine, twice a week). Tumor volumes and animal weights were monitored daily. Animals were euthanized at day 18 or 36 after randomization with zolazepam (0.2 ml/kg) and xylazine (16 mg/kg). Next, tumors were excised and paraffin-embedded. […] Quantification of the immunohistochemical analyses was performed using ImageJ software (https://imagej.nih.gov/). The staining intensities were expressed as arbitrary units and considered 1 in the vehicle group.

[1] = tested on: GRP78, ATF6, IRE1 and PERK; assay: qRT-PCR of ER stress markers in pancreatic cancer cells; format: cell-based, human and murine; settings: 50 µM, 2 h
Description: Total RNA was extracted using a phenol/chloroform method, after which 1 µg RNA was reverse-transcribed using an iScript Reverse Transcription Supermix kit according to the manufacturer’s instructions (Bio-Rad Laboratories). 25 ng cDNA was amplified using 10 µl of an IQ™ SYBR Green Supermix (Bio-Rad Laboratories). Primers were designed using qPrimer Depot software (http://primerdepot.nci.nih.gov/). qRT-PCR was carried out using an iQ^TM5 cycler (Bio-Rad Laboratories). The cycling conditions used were: 30 s at 95 °C, followed by 40 cycles of denaturation (15 s at 95 °C) and annealing/extension (30 s at 60 °C). The same cDNA preparations were used to quantify the expression of genes of interest and that of the housekeeping gene S14, which was used to normalize the gene expression levels. Relative quantitation of each sample was performed using Gene Expression Quantitation software (Bio-Rad Laboratories). The results were expressed in arbitrary units. For each gene, the expression level in untreated cells was arbitrarily set at “1”.

[2] = Systemic toxicity and hematochemical parameters of treated PANC-1 tumor-bearing mice; settings: PANC-1 tumor-bearing mice, 30 days treatment
Description: 2 × 10^5 PANC-1 or Mia-PaCa2 cells were inoculated subcutaneously in the right flank of 6-week old C57BL/6 female nude mice (Charles River Laboratories Italia, Calco), housed (5 per cage) under a 12 h light/dark cycle, with food and drinking water provided ad libitum. Tumor growth was measured daily by caliper, according to the equation (LxW^2)/2, where L = tumor length and W = tumor width. […] Tumor volumes and animal weights were monitored daily. Animals were euthanized at day 18 or 36 after randomization with zolazepam (0.2 ml/kg) and xylazine (16 mg/kg). […] Red blood cell (RBC) count, hemoglobin (Hb), white blood cell (WBC) count, platelet (PLT) count, lactate dehydrogenase (LDH), aspartate aminotransferase (AST), alanine aminotransferase (ALT), alkaline phosphatase (AP), creatinine and creatine phosphokinase (CPK) were measured in blood samples collected immediately after euthanasia, using commercially available kits from Beckman Coulter Inc (Beckman Coulter, Miami, FL, USA).
Blood was collected immediately after euthanasia and analyzed for red blood cells (RBC) count, hemoglobin (Hb), white blood cells (WBC) count, platelets (PLT) count, lactate dehydrogenase (LDH), aspartate aminotransferase (AST), alanine aminotransferase (ALT), alkaline phosphatase (AP), creatinine, creatine phosphokinase (CPK). Data are presented as means ± SD.

[3] = tested on: GRP78, ATF6, IRE1 and PERK; assay: Western blotting of ER stress markers in pancreatic cancer cells; format: cell-based, human and murine; settings: 50 µM, 2 h
Description: Cells were rinsed with ice-cold lysis buffer (50 mM, Tris, 10 mM EDTA, 1 % v/v Triton-X100), supplemented with protease inhibitor cocktail set III (80 µM aprotinin, 5 mM bestatin, 1.5 mM leupeptin, 1 mM pepstatin; Calbiochem, San Diego, CA, USA), 2 mM phenylmethylsulfonyl fluoride and 1 mM Na3VO4, then sonicated and centrifuged at 13,000 g for 10 min at 4 °C. 20 µg protein extracts were subjected to SDS-PAGE and probed with antibodies directed against ATG5, ATG7, ATG12, beclin, p62, LC3, GRP78, ATF6, IRE-1α and PERK (all from Abcam, Cambridge, UK), followed by incubation with a peroxidase-conjugated secondary antibody (Bio-Rad Laboratories). Next, the membranes were washed with Tris-buffered saline-Tween 0.1 % v/v solution, and proteins were detected by enhanced chemiluminescence (Bio-Rad Laboratories). To check for equal loading, the samples were probed with an anti-β-tubulin antibody (Santa Cruz Biotechnology Inc., Santa Cruz, CA, USA).

caspase 3 = assay: Caspase 3 activity assay in pancreatic cancer cells; format: cell-based, human and murine; settings: 2 h
Description: as §1

sigma-2 receptors = molecular target: T1, sigma-2 receptors (Rattus norvegicus, UniProt Q5U3Y7); assay: Sigma-2 radioligand binding assay ([3H]-DTG, rat liver membranes)
T1 construct: in rat liver membranes; from tissue; host or cells: rat liver membranes
Description: Sigma-2 receptor binding was carried out according to Berardi et al.. […] Concentrations required to inhibit 50 % of radioligand-specific binding (IC50) were determined using six to nine different concentrations of the drug in two or three experiments with samples in duplicate. Scatchard parameters (Kd and Bmax) and apparent inhibition constant (Ki) values were determined by nonlinear curve fitting, using Prism version 5.0, GraphPad software.

PANC-1 xenografts = assay: In vivo xenograft assay, PANC-1; set-up: species or system mice; settings: for tumor growth / intratumor apoptosis (cleaved caspase 3) and lipid peroxidation: 30 days
Description: 2 × 10^5 PANC-1 or Mia-PaCa2 cells were inoculated subcutaneously in the right flank of 6-week old C57BL/6 female nude mice (Charles River Laboratories Italia, Calco), housed (5 per cage) under a 12 h light/dark cycle, with food and drinking water provided ad libitum. Tumor growth was measured daily by caliper, according to the equation (LxW^2)/2, where L = tumor length and W = tumor width. When tumors reached a volume of 100 mm^3, the mice (n = 8/group) were randomized in the following groups and treated daily for 15 days or 30 days intraperitoneally as reported: (1) Vehicle group (100 µl saline solution), (2) FA4^low group (750 nmol FA4 in 100 µl saline solution), (3) FA4^high group (1500 nmol FA4 in 100 µl saline solution) and (4) Gemcitabine group (20 mg/kg gemcitabine, twice a week). Tumor volumes and animal weights were monitored daily. Animals were euthanized at day 18 or 36 after randomization with zolazepam (0.2 ml/kg) and xylazine (16 mg/kg). Next, tumors were excised and paraffin-embedded. Sections were immuno-stained for cleaved caspase 3 (Cell Signalling Technology, Danvers, MA, USA) or with an anti-malondialdehyde antibody (Abcam), followed by a peroxidase-conjugated secondary antibody (Dako, Glostrup, Denmark). The sections were examined under a Leica DC100 microscope (Leica, Wetzlar, Germany). Quantification of the immunohistochemical analyses was performed using ImageJ software (https://imagej.nih.gov/). The staining intensities were expressed as arbitrary units and considered 1 in the vehicle group.

T1 sequence (Q5U3Y7 whole entry): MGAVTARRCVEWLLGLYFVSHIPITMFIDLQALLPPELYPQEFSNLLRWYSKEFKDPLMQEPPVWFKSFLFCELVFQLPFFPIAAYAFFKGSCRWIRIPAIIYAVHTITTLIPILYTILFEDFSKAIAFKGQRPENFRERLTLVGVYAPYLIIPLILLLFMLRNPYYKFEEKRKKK

SMILES: CN(C)C(=S)N/N=C1\C(=O)N(CCCCN2CCC3(CC2)OCc2ccccc23)c2ccccc21 [FA4, (Z)-2-(1-(4-(3 H-spiro[isobenzofuran-1,4’-piperidine]-1’-yl)butyl)-2-oxoindolin-3-ylidene)-N,N-dimethylhydrazinecarbothioamide]
- activation of caspase 9 and caspase 3 with mitoquinol (caspase 9; 50 µM FA4 plus 0.4 µM mitoquinol): did not find any activation of caspase 9 and caspase 3
- caspase 9 activation (caspase 9; 50 µM): observed in all the cells in which FA4 increased mitochondrial ROS and depolarization
- mitochondrial ROS (mitochondrial ROS): increased mitochondrial ROS in all the cell lines tested, except MiaPaCa2
- tumor growth (MiaPaCa2 xenografts): ineffective at both dosages
- mRNA expression of ER stress markers GRP78, ATF6, IRE1, PERK [1]: increased upon treatment with FA4 in all the cells tested, except in MiaPaCa2 cells
- treatment-related deaths, weight loss, abnormalities in behavior [2]: No treatment-related deaths, weight loss or abnormalities in mouse behavior were observed
- protein expression of ER stress sensors and executers (Western blot) [3]: in all cell lines except MiaPaCa2, this thiosemicarbazone was able to increase the expression of ER stress sensors and executers
- caspase 3 activation (caspase 3; 50 µM, MiaPaCa2, PANC-1, AspC1, KP02, PANC02 cells): activated caspase 3 in all the cell lines investigated; also recorded: most potent inducer of caspase 3 in all cell lines tested
- induction of caspases 3, 7, 9 at IC50 concentration (caspase 3; concentration corresponding to IC50 in each cell line): significant inducer of caspases in all the cell lines analyzed, except for MiaPaCa2
- Ki (sigma-2 receptors): 0.0158 ± 0.0036 µM
- tumor volume vs vehicle (PANC-1 xenografts; FA4 750 nmol (low) and 1500 nmol (high) i.p. daily, 15 days): tumors were significantly smaller
- tumor growth (PANC-1 xenografts; FA4 high dosage 1500 nmol i.p. daily): regression of tumor growth
- intratumor apoptosis (cleaved caspase 3) and lipid peroxidation (PANC-1 xenografts; FA4 high dosage): became more pronounced
- tumor growth (PANC-1 xenografts; FA4 low dosage 750 nmol i.p. daily): cytostatic effect
- intratumor apoptosis (cleaved caspase 3) and lipid peroxidation (PANC-1 xenografts; FA4 low dosage): low or undetectable
